Test results from US20220033434A1, “ANDROGEN RECEPTOR NUCLEIC ACIDS AND USES THEREOF” (Avidity Biosciences, Inc., priority 2016, published 2022).
In the oligonucleotide strings, read from the 5' end, every base follows the letter of its sugar. An asterisk marks phosphorothioate; unmarked linkages are phosphodiester. Other units and linkages are bracketed, terminal groups are in braces. A string of capitals states the bases alone. d = 2'-deoxy (DNA); m = 2'-O-methyl; f = 2'-fluoro

Assays:
Type in all cases: cell-based, human
AR mRNA [1] = experiment: AR mRNA IC50 and maximal KD, siRNA at various concentrations, 22RV1 cells, qPCR probes exon junctions 1/2 or 4/5
Experimental: (§1) Focusing on siRNAs targeting AR sequences exons 1 and 2, the ability of these siRNAs to downregulate AR mRNA at a concentration of 5 nM was determined by RT-qPCR. For this purpose, siRNAs were transfected into 22RV1 and LNCaP cells as described above. At 24 hrs post-transfection, RNA was harvested from cells using a Qiagen RNeasy® Plus Mini Kit or Stratec InviTrap® RNA Cell HTS96 kit. The concentration of each isolated RNA was determined via A260 measurement using a NanoDrop spectrophotometer. RNA samples were reverse transcribed to cDNA using the High Capacity RNA to cDNA Kit (Life Technologies) according to the manufacturer's instructions. cDNA samples were then quantified by qPCR using AR-specific probes and results normalized to either endogenous β-actin or PPIB using the standard 2^−ΔΔCt method. These studies identified 6 siRNAs that at a concentration of 5 nM down regulated AR mRNA in 22RV1 and LNCaP cells by more than 80% compared to controls (Table 4).
(§2) To determine the concentration required to reduce AR expression by 50% (IC50) and maximal KD activity, these siRNAs were transfected into LNCaP, C4-2, and 22RV1 cells at various concentrations starting at 100 nM. C4-2 (MD Anderson) is an LNCaP subline that has been selected for resistance against clinically used AR antagonists (Wu et al., “Derivation of androgen-independent human LNCaP prostatic cancer cell sublines: Role of bone stromal cells,” International J Cancer 1994; 57:406-412). Cells were harvested 48 h post-transfection; RNA was prepared and analyzed as stated above. For these experiments, specific AR qPCR probes located at the exon junctions 1/2 or 4/5 were used that recognize most mRNAs of relevant AR isoforms or primarily full length AR mRNA, respectively. All tested siRNAs lowered AR expression with subnanomolar potency to 70% in 22RV1 cells and to ≥90% in LNCaP and C4-2 cells (Table 5). […]

[2] = system: AR FL (full length AR T877A LBD mutant); experiment: AR protein knock-down by Western blot after siRNA transfection in LNCaP cells: AR FL; conditions: 5 nM siRNA, 72 h post transfection, compared to controls
Outline: (§3)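 Western blot of RIPA lysates (30 ug/lane) probed with an anti-AR N-terminal antibody recognising full-length and splice-variant AR, tubulin as reference, fluorescent readout. Cells received 5 nM siRNA; harvest 72 h post-transfection for LNCaP, 50 h for 22RV1.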

AR mRNA [3] = experiment: AR mRNA downregulation by RT-qPCR at 5 nM siRNA in 22RV1 cells; conditions: 24 hrs post-transfection
Experimental: as §1

AR FL(1) = experiment: AR protein knock-down by Western blot after siRNA transfection in 22RV1 cells: AR FL(1); conditions: 5 nM siRNA, 50 h post transfection, compared to controls
Outline: as §3

AR-SV(2) = experiment: AR protein knock-down by Western blot after siRNA transfection in 22RV1 cells: AR-SV(2); conditions: 5 nM siRNA, 50 h post transfection, compared to controls
Outline: as §3

AR mRNA [4] = experiment: AR mRNA downregulation by RT-qPCR at 5 nM siRNA in LNCaP cells; conditions: 24 hrs post-transfection
Experimental: as §1

AR mRNA [5] = experiment: AR mRNA IC50 and maximal KD, siRNA at various concentrations, LNCaP cells, qPCR probes exon junctions 1/2 or 4/5
Experimental: as §1, §2

AR mRNA [6] = experiment: AR mRNA IC50 and maximal KD, siRNA at various concentrations, C4-2 cells, qPCR probes exon junctions 1/2 or 4/5
Experimental: as §1, §2

AR-SV(3) = experiment: AR protein knock-down by Western blot after siRNA transfection in 22RV1 cells: AR-SV(3); conditions: 5 nM siRNA, 50 h post transfection, compared to controls
Outline: as §3

[7] = AR qPCR probe at exon junction 1/2, 48 h post-transfection
[8] = AR qPCR probe at exon junction 1/2, 48 h post-transfection, read-out: IC50 (nM), 22RV1, Exon 1/2
[9] = AR qPCR probe at exon junction 4/5, 48 h post-transfection
[10] = AR qPCR probe at exon junction 4/5, 48 h post-transfection, read-out: IC50 (nM), 22RV1, Exon 4/5
[11] = AR qPCR probe at exon junction 1/2, 48 h post-transfection, read-out: IC50 (nM), LNCaP, Exon 1/2
[12] = AR qPCR probe at exon junction 4/5, 48 h post-transfection, read-out: IC50 (nM), LNCaP, Exon 4/5
[13] = AR qPCR probe at exon junction 1/2, 48 h post-transfection, read-out: IC50 (nM), C4-2, Exon 1/2
[14] = AR qPCR probe at exon junction 4/5, 48 h post-transfection, read-out: IC50 (nM), C4-2, Exon 4/5

Substance	max KD (%), 22RV1, Exon 1/2 (AR mRNA [1]; [7])	IC50 (AR mRNA [1]; [8])	max KD (%), 22RV1, Exon 4/5 (AR mRNA [1]; [9])	IC50 (AR mRNA [1]; [10])	% KD AR Protein LNCaP AR FL [2]	% KD AR RNA 22RV1 (AR mRNA [3])	% KD AR Protein 22RV1 AR FL(1) (AR FL(1))	% KD AR Protein 22RV1 AR-SV(2) (AR-SV(2))	% KD AR RNA LNCaP (AR mRNA [4])	max KD (%), LNCaP, Exon 1/2 (AR mRNA [5]; [7])	IC50 (AR mRNA [5]; [11])	max KD (%), LNCaP, Exon 4/5 (AR mRNA [5]; [9])	IC50 (AR mRNA [5]; [12])	max KD (%), C4-2, Exon 1/2 (AR mRNA [6]; [7])	IC50 (AR mRNA [6]; [13])	max KD (%), C4-2, Exon 4/5 (AR mRNA [6]; [9])	IC50 (AR mRNA [6]; [14])	% KD AR Protein 22RV1 AR-SV(3) (AR-SV(3))
XD-01825: AR siRNA with chemical modification, Id # 2814; sense X05345 (SEQ ID NO: 175), antisense X05346 (SEQ ID NO: 176) (sense mGmCfUmUfCmUfGmGfGmUfGmUfCmAfCmUfAmUfGdT*dT; antisense fCfAmUfAmGfUmGfAmCfAmCfCmCfAmGfAmAfGmCdT*dT)	53.5%	0.067 nM	60.7%	0.055 nM	91%	91%	90%	93%	82%	82.5%	0.02 nM	84.9%	0.018 nM	83.5%	0.024 nM	84.6%	0.026 nM	95%
XD-01827: AR siRNA with chemical modification, Id # 2819; sense X05349 (SEQ ID NO: 179), antisense X05350 (SEQ ID NO: 180) (sense mUmGfGmGfUmGfUmCfAmCfUmAfUmGfGmAfGmCfUdT*dT; antisense fAfGmCfUmCfCmAfUmAfGmUfGmAfCmAfCmCfCmAdT*dT)	38.7%	0.108 nM	54.0%	0.068 nM	90%	89%	89%	92%	86%	81.7%	0.053 nM	84.5%	0.06 nM	83.2%	0.052 nM	85.7%	0.052 nM	93%
XD-01813: AR siRNA with chemical modification, Id # 1201; sense X05321 (SEQ ID NO: 151), antisense X05322 (SEQ ID NO: 152) (sense mGmCfGmUfGmCfGmCfGmAfAmGfUmGfAmUfCmCfAdT*dT; antisense fUfGmGfAmUfCmAfCmUfUmCfGmCfGmCfAmCfGmCdT*dT)					98%	53%	73%	77%	66%									80%
XD-01820: AR siRNA with chemical modification, Id # 2189; sense X05335 (SEQ ID NO: 165), antisense X05336 (SEQ ID NO: 166) (sense mGmUfAmCfCmAfGmAfGmUfCmGfCmGfAmCfUmAfCdT*dT; antisense fGfUmAfGmUfCmGfCmGfAmCfUmCfUmGfGmUfAmCdT*dT)					100%	46%	85%	91%	59%									91%
XD-01821: AR siRNA with chemical modification, Id # 2207; sense X05337 (SEQ ID NO: 167), antisense X05338 (SEQ ID NO: 168) (sense mCmUfAmCfAmAfCmUfUmUfCmCfAmCfUmGfGmCfUdT*dT; antisense fAfGmCfCmAfGmUfGmGfAmAfAmGfUmUfGmUfAmGdT*dT)					96%	68%	73%	80%	81%									7%
XD-01817: AR siRNA with chemical modification, Id # 1987; sense X05329 (SEQ ID NO: 159), antisense X05330 (SEQ ID NO: 160) (sense mAmAfGmGfUmUfCmUfCmUfGmCfUmAfGmAfCmGfAdT*dT; antisense fUfCmGfUmCfUmAfGmCfAmGfAmGfAmAfCmCfUmUdT*dT)	49.3%	0.059 nM	61.1%	0.043 nM	99%	83%	83%	91%	87%	83.4%	0.018 nM	87.2%	0.017 nM	83.6%	0.021 nM	84.1%	0.023 nM	86%
XD-01828: AR siRNA with chemical modification, Id # 2820; sense X05351 (SEQ ID NO: 181), antisense X05352 (SEQ ID NO: 182) (sense mGmGfGmUfGmUfCmAfCmUfAmUfGmGfAmGfCmUfCdT*dT; antisense fGfAmGfCmUfCmCfAmUfAmGfUmGfAmCfAmCfCmCdT*dT)	51.7%	0.042 nM	50.7%	0.028 nM	90%	96%	80%	89%	84%	84.8%	0.023 nM	81.7%	0.028 nM	81.1%	0.022 nM	77.7%	0.02 nM	92%
XD-01826: AR siRNA with chemical modification, Id # 2817; sense X05347 (SEQ ID NO: 177), antisense X05348 (SEQ ID NO: 178) (sense mUmCfUmGfGmGfUmGfUmCfAmCfUmAfUmGfGmAfGdT*dT; antisense fCfUmCfCmAfUmAfGmUfGmAfCmAfCmCfCmAfGmAdT*dT)	52.4%	0.146 nM	64.8%	0.057 nM	91%	89%	87%	92%	81%	84.6%	0.041 nM	86.0%	0.035 nM	86.5%	0.049 nM	87.0%	0.046 nM	93%
XD-01816: AR siRNA with chemical modification, Id # 1984; sense X05327 (SEQ ID NO: 157), antisense X05328 (SEQ ID NO: 158) (sense mGmCfAmAfAmGfGmUfUmCfUmCfUmGfCmUfAmGfAdT*dT; antisense fUfCmUfAmGfCmAfGmAfGmAfAmCfCmUfUmUfGmCdT*dT)					97%	60%	57%	66%	74%									69%
